Assay results published in patent US10287297B2, “Epoxyazulene derivatives useful for treating cancer and diabetes” (The United States of America, as represented by the …, priority 2015, dated 2019).

Experiments:
Type in all cases: cell-based
[1] = system: U251; test: NCI 60 cell assay, CNS U251; settings: Homo sapiens, U-251, 48 h, drug exposure two days, SRB endpoint, read-out: GI-50 value
Description: (§1) Samples were tested in the standard National Cancer Institute 60-cell line protocol. First, they were tested against all 60 cell lines in a single final concentration of 10 micromolar. Then, they were separately tested in five 10-fold dilutions. The drug exposure was two days, with an SRB endpoint.

[2] = system: NCI-H226; test: NCI 60 cell assay, NSCLC NCI-H226; settings: Homo sapiens, 48 h, drug exposure two days, SRB endpoint, read-out: GI-50 value
Description: as §1

[3] = system: OVCAR-8; test: NCI 60 cell assay, ovarian OVCAR-8; settings: Homo sapiens, 48 h; OVCAR-8 (ovarian); drug exposure two days, SRB endpoint; read-out: GI-50 value
Description: as §1

[4] = system: HCC-2998; test: NCI 60 cell assay, colon HCC-2998; settings: Homo sapiens, 48 h; HCC-2998 (colon); drug exposure two days, SRB endpoint; read-out: GI-50 value
Description: as §1

[5] = system: MDA-MB-231/ATCC; test: NCI 60 cell assay, breast MDA-MB-231/ATCC; settings: Homo sapiens, 48 h; MDA-MB-231/ATCC (breast); drug exposure two days, SRB endpoint; read-out: GI-50 value
Description: as §1

[6] = system: CCRF-CEM; test: NCI 60 cell assay, leukemia CCRF-CEM; settings: Homo sapiens, 48 h, drug exposure two days, SRB endpoint, read-out: GI-50 value
Description: as §1

[7] = system: MALME-3M; test: NCI 60 cell assay, melanoma MALME-3M; settings: Homo sapiens, 48 h; MALME-3M (melanoma); drug exposure two days, SRB endpoint; read-out: GI-50 value
Description: as §1

[8] = system: KM12; test: NCI 60 cell assay, colon KM12; settings: Homo sapiens, 48 h, drug exposure two days, SRB endpoint, read-out: GI-50 value
Description: as §1

[9] = system: RXF 393; test: NCI 60 cell assay, renal RXF 393; settings: Homo sapiens, 48 h; RXF 393 (renal); drug exposure two days, SRB endpoint; read-out: GI-50 value
Description: as §1

[10] = system: OVCAR-5; test: NCI 60 cell assay, ovarian OVCAR-5; settings: Homo sapiens, 48 h; OVCAR-5 (ovarian); drug exposure two days, SRB endpoint; read-out: GI-50 value
Description: as §1

[11] = system: HOP-62; test: NCI 60 cell assay, NSCLC HOP-62; settings: Homo sapiens, 48 h; HOP-62 (NSCLC); drug exposure two days, SRB endpoint; read-out: GI-50 value
Description: as §1

[12] = system: SW-620; test: NCI 60 cell assay, colon SW-620; settings: Homo sapiens, 48 h; SW-620 (colon); drug exposure two days, SRB endpoint; read-out: GI-50 value
Description: as §1

[13] = system: A498; test: NCI 60 cell assay, renal A498; settings: Homo sapiens, 48 h, drug exposure two days, SRB endpoint, read-out: GI-50 value
Description: as §1

[14] = system: MDA-MB-468; test: NCI 60 cell assay, breast MDA-MB-468; settings: Homo sapiens, 48 h; MDA-MB-468 (breast); drug exposure two days, SRB endpoint; read-out: GI-50 value
Description: as §1

[15] = system: K-562; test: NCI 60 cell assay, leukemia K-562; settings: Homo sapiens, K562, 48 h; K-562 (leukemia); drug exposure two days, SRB endpoint; read-out: GI-50 value
Description: as §1

[16] = system: M14; test: NCI 60 cell assay, melanoma M14; settings: Homo sapiens, 48 h, drug exposure two days, SRB endpoint, read-out: GI-50 value
Description: as §1

[17] = system: MDA-MB-435; test: NCI 60 cell assay, melanoma MDA-MB-435; settings: Homo sapiens, 48 h; MDA-MB-435 (melanoma); drug exposure two days, SRB endpoint; read-out: GI-50 value
Description: as §1

[18] = system: BT-549; test: NCI 60 cell assay, breast BT-549; settings: Homo sapiens, 48 h; BT-549 (breast); drug exposure two days, SRB endpoint; read-out: GI-50 value
Description: as §1

[19] = system: IGROV1; test: NCI 60 cell assay, ovarian IGROV1; settings: Homo sapiens, IGROV-1, 48 h, drug exposure two days, SRB endpoint, read-out: GI-50 value
Description: as §1

[20] = system: SK-MEL-28; test: NCI 60 cell assay, melanoma SK-MEL-28; settings: Homo sapiens, 48 h; SK-MEL-28 (melanoma); drug exposure two days, SRB endpoint; read-out: GI-50 value
Description: as §1

[21] = system: HS 578T; test: NCI 60 cell assay, breast HS 578T; settings: Homo sapiens, 48 h; HS 578T (breast); drug exposure two days, SRB endpoint; read-out: GI-50 value
Description: as §1

[22] = system: SK-OV-3; test: NCI 60 cell assay, ovarian SK-OV-3; settings: Homo sapiens, 48 h; SK-OV-3 (ovarian); drug exposure two days, SRB endpoint; read-out: GI-50 value
Description: as §1

[23] = system: SN12C; test: NCI 60 cell assay, renal SN12C; settings: Homo sapiens, 48 h, drug exposure two days, SRB endpoint, read-out: GI-50 value
Description: as §1

[24] = system: OVCAR-4; test: NCI 60 cell assay, ovarian OVCAR-4; settings: Homo sapiens, 48 h; OVCAR-4 (ovarian); drug exposure two days, SRB endpoint; read-out: GI-50 value
Description: as §1

[25] = system: SNB-75; test: NCI 60 cell assay, CNS SNB-75; settings: Homo sapiens, 48 h; SNB-75 (CNS); drug exposure two days, SRB endpoint; read-out: GI-50 value
Description: as §1

[26] = system: SF-539; test: NCI 60 cell assay, CNS SF-539; settings: Homo sapiens, 48 h; SF-539 (CNS); drug exposure two days, SRB endpoint; read-out: GI-50 value
Description: as §1

[27] = system: SR; test: NCI 60 cell assay, leukemia SR; settings: Homo sapiens, 48 h, drug exposure two days, SRB endpoint, read-out: GI-50 value
Description: as §1

| SMILES | GI50 [1] [µM] | GI50 [2] [µM] | GI50 [3] [nM] | GI50 [4] [µM] | GI50 [5] [µM] | GI50 [6] [µM] | GI50 [7] [µM] | GI50 [8] [µM] | GI50 [9] [nM] | GI50 [10] [µM] | GI50 [11] [µM] | GI50 [12] [µM] | GI50 [13] [nM] | GI50 [14] [µM] | GI50 [15] [µM] | GI50 [16] [µM] | GI50 [17] [µM] | GI50 [18] [nM] | GI50 [19] [µM] | GI50 [20] [µM] | other results |
| --- | --- | --- | --- | --- | --- | --- | --- | --- | --- | --- | --- | --- | --- | --- | --- | --- | --- | --- | --- | --- | --- |
| CC1=C2[C@@H](CC1)[C@]1(C)O[C@@](C3CCCCC3)(C[C@H]1OC(=O)CO)[C@H]2OC(=O)C=Cc1ccccc1 [(Iq), (3aR,4S,5R,7R,8S)-7-cyclohexyl-5-(2-hydroxyacetoxy)-1,4-dimethyl-2,3,3a,4,5,6,7,8-octahydro-4,7-epoxyazulen-8-yl cinnamate] | 13 | 12 | 100 | 13 | 18 | 15 | 17 | 14 | 25 | 19 | 14 | 14 | 21 | 12 | 13 | 15 | 15 | 500 | 19 | 17 | GI50 [21]: 30 nM; GI50 [22]: 13 µM; GI50 [23]: 0.06 µM; GI50 [24]: 15 µM; GI50 [25]: 14 µM; GI50 [26]: 17 µM; GI50 [27]: 9 µM |
| CC1=C2[C@@H](CC1)[C@]1(C)O[C@@](C(C)C)(C[C@H]1OC(=O)CO)[C@H]2OC(=O)/C=C/c1ccccc1 [Compound (Ih)] | 35 | 35 | 90 | 100 | 39 | 42 | 43 | 40 | 130 | 41 | 36 | 40 | 34 | 33 | 38 | 43 | 43 | 140 | 46 | 42 | GI50 [21]: 15 nM; GI50 [22]: 44 µM; GI50 [23]: 20 µM; GI50 [24]: 35 µM; GI50 [25]: 2.9 µM; GI50 [26]: 40 µM; GI50 [27]: 32 µM |
| CC1=C2[C@@H](CC1)[C@]1(C)O[C@@](C(C)C)(C[C@H]1OC(=O)CO)[C@H]2OC(=O)C1CC1c1ccccc1 (stereo partly drawn) [Compound (Ij), (3aR,4S,5R,7R,8S)-5-(2-hydroxyacetoxy)-7-isopropyl-1,4-dimethyl-2,3,3a,4,5,6,7,8-octahydro-4,7-epoxyazulen-8-yl-2-phenylcyclopropane-1-carboxylate] | 15 | 17 | 13000 | 14 | 15 | 18 | 17 | 13 | 69 | 20 | 17 | 17 | 270 | 13 | 15 | 13 | 15 | 14000 | 19 | 17 | GI50 [21]: 150 nM; GI50 [22]: 17 µM; GI50 [23]: 7.4 µM; GI50 [24]: 14 µM; GI50 [25]: 15 µM; GI50 [26]: 17 µM; GI50 [27]: 14 µM |
| CC1=C2[C@@H](CC1)[C@]1(C)O[C@@](C(C)C)(C[C@H]1OC(=O)[C@H](C)O)[C@H]2OC(=O)C=Cc1ccccc1 [(Il), (3aR,4S,5R,7R,8S)-5-(((S)-2-hydroxypropanoyl)oxy)-7-isopropyl-1,4-dimethyl-2,3,3a,4,5,6,7,8-octahydro-4,7-epoxyazulen-8-yl cinnamate] | 14 | 11 | 350 | 14 | 15 | 16 | 15 | 16 | 45 | 18 | 15 | 15 | 210 | 11 | 15 | 13 | 15 | 1400 | 19 | 16 | GI50 [21]: 98 nM; GI50 [22]: 15 µM; GI50 [23]: 0.21 µM; GI50 [24]: 12 µM; GI50 [25]: 24 µM; GI50 [26]: 15 µM; GI50 [27]: 13 µM |
| CC1=C2[C@@H](CC1)[C@]1(C)O[C@@](C3CC3)(C[C@H]1OC(=O)CO)[C@H]2OC(=O)C=Cc1ccccc1 [Compound (Is), (3aR,4S,5R,7R,8S)-7-cyclopropyl-5-(2-hydroxyacetoxy)-1,4-dimethyl-2,3,3a,4,5,6,7,8-octahydro-4,7-epoxyazulen-8-yl cinnamate] | 15 | 17 | 54 | 17 | 18 | 19 | 16 | 17 | 14 | 17 | 16 | 20 | 110 | 15 | 20 | 17 | 17 | 210 | 19 | 18 | GI50 [21]: 23 nM; GI50 [22]: 16 µM; GI50 [23]: 0.052 µM; GI50 [24]: 15 µM; GI50 [25]: 13 µM; GI50 [26]: 17 µM; GI50 [27]: 17 µM |
| CC1=C2[C@@H](CC1)[C@]1(C)O[C@@](c3ccccc3)(C[C@H]1OC(=O)CO)[C@H]2OC(=O)C=Cc1ccccc1 [(Ir), (3aR,4S,5R,7R,8S)-5-(2-hydroxyacetoxy)-1,4-dimethyl-7-phenyl-2,3,3a,4,5,6,7,8-octahydro-4,7-epoxyazulen-8-yl cinnamate] | 13 | 16 | 260 | 15 | 19 | 20 | 20 | 16 | 27 | 22 | 18 | 21 | 89 | 15 | 16 | 17 | 17 | 710 | 24 | 18 | GI50 [21]: 33 nM; GI50 [22]: 19 µM; GI50 [23]: 11 µM; GI50 [24]: 15 µM; GI50 [25]: 15 µM; GI50 [26]: 18 µM; GI50 [27]: 11 µM |
| CC(=O)O[C@@H]1C[C@]2(C(C)C)O[C@@]1(C)[C@@H]1CCC(C)=C1[C@@H]2OC(=O)C=Cc1ccccc1 [(Im), (3aR,4S,5R,7R,8S)-5-acetoxy-7-isopropyl-1,4-dimethyl-2,3,3a,4,5,6,7,8-octahydro-4,7-epoxyazulen-8-yl cinnamate] | 48 | 29 | 9000 | 68 | 49 | 32 | 39 | 40 | 8900 | 100 | 89 | 39 | 2200 | 24 | 34 | 40 | 39 | 51000 | 100 | 69 | GI50 [21]: 4800 nM; GI50 [22]: 71 µM; GI50 [23]: 10 µM; GI50 [24]: 11 µM; GI50 [25]: 28 µM; GI50 [26]: 100 µM; GI50 [27]: 32 µM |
